This is an account of results in US11571407B2, “Bicalutamide analogs or (S)-bicalutamide as exocytosis activating compounds for use in the treatment of a lysosomal storage disorder or glycogenosis” (BCN PEPTIDES, S.A., priority 2013, dated 2023).

The subject of series [1] is fibroblasts from patients affected by different lysosomal storage diseases. The series can be described thus: Determination of glycosaminoglycans (GAGs), 1,9-dimethylmethylene blue (DMB) assay. Format: cell-based, human. The note with it: for Decrease of GAGs (%), Median: Table 5 median over the patients' fibroblasts; for Decrease of GAGs (%), Median / Decrease of GAGs (%): 72 h; for decrease of glycosaminoglycans (in words): fibroblasts from seven patients, 50 and 100 μM. How it is done: Fibroblasts from thirteen patients affected by seven different lysosomal storage diseases (Fabry, Gaucher, Hurler, Niemann-Pick type A/B, Sanfilippo A, Sanfilippo B and Tay-Sachs) were cultured in DMEM (Dulbecco's modified Eagles medium) with 10% fetal bovine serum and in the presence of antibiotics (penicillin and streptomycin), at 37° C. with 5% CO2. All reagents were purchased from PAA Laboratories (Velizy-Villacoublay, France). The fibroblasts of the patients were selected on the basis of availability of fibroblasts and measurable residual activity. The use of human samples was approved by the Ethical Committee of Hospital Clinic, Barcelona
Glycobiology. […] The fibroblasts were cultured in triplicate in 6-well plates and they were harvested 72 hours after treatment. DMB absorbance was measured in duplicate at 656 nm with a microplate reader (POLARstar Omega, BMG LABTECH, Offenburg, Germany).
Fibroblasts from three patients affected by Sanfilippo B disease and one patient affected by Hurler disease were treated with increasing concentrations of bicalutamide (racemic mixture at increasing concentrations of 0.01, 0.1, 1, 10 and 100 μM). Glycosaminoglycans (GAGs) levels were quantified with the 1,9-dimethylmethylene blue (DMB) assay.
Fibroblasts from seven patients affected by different diseases derived from lysosomal storage (three Sanfilippo B disease patients with different genotypes, one Sanfilippo A disease patient, one Tay-Sachs disease patient, one Niemann-Pick type A/B disease patient and one Hurler disease patient) were independently treated with different concentrations of (R)- and (S)-bicalutamide (50 and 100 μM).

For series [2] the following is noted: cited from earlier work.
[3] abbreviates: Table 5 patient 1, Sanfilippo B fibroblasts, 50 μM.
[4] abbreviates: Table 5 patient 1, Sanfilippo B fibroblasts, 100 μM.
Setting [5] is: Table 5 patient 2, Sanfilippo B fibroblasts, 50 μM.
Where [6] appears, read: Table 5 patient 2, Sanfilippo B fibroblasts, 100 μM.
Where [7] appears, read: Table 5 patient 3, Sanfilippo B fibroblasts, 50 μM.
The mark [8] stands for this setting: Table 5 patient 3, Sanfilippo B fibroblasts, 100 μM.
[9] abbreviates: Table 5 patient 4, Sanfilippo A fibroblasts, 50 μM.
Where [10] appears, read: Table 5 patient 4, Sanfilippo A fibroblasts, 100 μM.
Where [11] appears, read: Table 5 patient 5, Tay-Sachs fibroblasts, 50 μM.
Where [12] appears, read: Table 5 patient 5, Tay-Sachs fibroblasts, 100 μM.
The mark [13] stands for this setting: Table 5 patient 6, Niemann-Pick AB fibroblasts, 50 μM.
Where [14] appears, read: Table 5 patient 6, Niemann-Pick AB fibroblasts, 100 μM.
Setting [15] is: Table 5 patient 7, Hurler fibroblasts, 50 μM.
Setting [16] is: Table 5 patient 7, Hurler fibroblasts, 100 μM.

Marks after values point to notes of the source that are not given here.

As for `C[C@@](O)(CS(=O)(=O)c1ccc(F)cc1)C(=O)Nc1ccc(C#N)c(C(F)(F)F)c1` [(S)-BICALUTAMIDE (1), (2S)-N-[4-cyano-3-(trifluoromethyl)phenyl]-3-[(4-fluorophenyl)sulfonyl]-2-hydroxy-2-methylpropanamide], the “Decrease of GAGs (%), Median” value is 18* % in series [1] (50 μM) and 38* % in series [1] (100 μM). Moreover, the “Decrease of GAGs (%)” value in series [1] (setting [3]) is listed as “N.S”; in series [1] (setting [4]) it was 22* %; in series [1] (setting [5]), 18* %; in series [1] (setting [6]) it was 39* %; in series [1] (setting [7]) it was 15* %; in series [1] (setting [8]), 20* %. Further, the “Decrease of GAGs (%)” value is on record as 27.4* % in series [1] (setting [9]); 56* % in series [1] (setting [10]); 31* % in series [1] (setting [11]); 60* % in series [1] (setting [12]); 24* % in series [1] (setting [13]); 38* % in series [1] (setting [14]). Besides, the “Decrease of GAGs (%)” value in series [1] (setting [15]) and in series [1] (setting [16]) was 0% in each case. Also, the “decrease of glycosaminoglycans (in words)” value in series [1] is “significant and dose-dependent decrease of glycoaminoglicans”.
Consider `C[C@@](O)(CS(=O)(=O)c1ccc(F)cc1)C(=O)Nc1ccc(C#N)c(C(F)(F)F)c1` (single isomer, unassigned) [(R)-BICALUTAMIDE (2)], for which the “Decrease of GAGs (%), Median” value in series [1] (50 μM) is on record as 0%; in series [1] (100 μM), 25* %. For the same compound, the “Decrease of GAGs (%)” value in series [1] (setting [3]) is recorded as “N.S”; in series [1] (setting [4]), 25* %; in series [1] (setting [5]) it was “N.S”; in series [1] (setting [6]), “N.S”; in series [1] (setting [7]), 0%; in series [1] (setting [8]), 33* %. The “Decrease of GAGs (%)” value in series [1] (setting [9]) was 0%; in series [1] (setting [10]), 0%; in series [1] (setting [11]), “N.S”; in series [1] (setting [12]), 45* %; in series [1] (setting [13]) it was “N.S”; in series [1] (setting [14]), 41* %. The “Decrease of GAGs (%)” value in series [1] (setting [15]) is reported as 0%; in series [1] (setting [16]) it was 16* %. The “decrease of glycosaminoglycans (in words)” value in series [1] is “a decrease of GAGs levels in some cases, but with a lower intensity and not universally”. The “half life in plasma” value in series [2] (in vivo) is reported as 1 week. Further, in series [2] (steady state, (R)- versus (S)-bicalutamide), the “concentrations in plasma at the steady state relative to (S)-bicalutamide” value is 100 times.
